Test results from US20240336615A1, “CYCLOPROPYL-(HETERO)ARYL-SUBSTITUTED ETHYL-SULFOXIME-PYRIDINE DERIVATIVES” (Boehringer Ingelheim Vetmedica GmbH, priority 2023, published 2024).

How the values were obtained:
Myzus persicae = assay: Insecticidal test on Myzus persicae (Example 17); assay type: in vivo; settings: 144 h, foliar application on Chinese cabbage, 6 days after application, read-out: control efficacy level (control rate)
Description: The compounds of formula (I), (Ia) and/or (Ib) of the present invention or salts thereof are separately dispersed in water and diluted to 500 ppm and 50 ppm. Chinese cabbage plants are planted in plastic pots (diameter: 8 cm, height: 8 cm). Aphids (Myzus persicae) are propagated on the plants and then the number of surviving aphids is counted. The dispersion is applied to the foliage of the potted plants. After the plants are air dried, these are kept in a greenhouse. 6 days after the application, the number of the alive insects is counted on the plants. The control rate is calculated according to the following formula and the control efficacy is evaluated according to the following criteria. [formula] • Ta: the number of alive insects before the foliar application in a treated plot • T: the number of alive insects after the foliar application in a treated plot • Ca: the number of alive insects before the foliar application in an untreated plot • C: the number of alive insects after the foliar application in an untreated plot • A: the control rate is 100% • B: the control rate is 90 to 99% • C: the control rate is 80 to 89% • D: the control rate is 50 to 79%

Spodoptera litura = assay: Insecticidal test on Spodoptera litura (Example 14); assay type: in vivo; settings: foliar, 192 h, 500 ppm, cabbage leaf dip, 2nd-instar larvae, 8 days after inoculation, read-out: activity level (corrected mortality rate)
Description: The compounds of formula (I), (Ia) and/or (Ib) of the present invention or salts thereof are separately dispersed in water and diluted to 500 ppm and 50 ppm. Cabbage leaves are dipped in the dispersion for about 30 seconds. After air dried, the leaves are placed in a plastic Petri dish with a diameter of 9 cm and inoculated with ten 2nd-instar larvae of Spodoptera litura, after which the dish is closed and then allowed to stand in a room at 25° C. 8 days after the inoculation, the numbers of the dead and alive insects are counted. The corrected mortality rate is calculated according to the following formula and the insecticidal activity is evaluated according to the following criteria.
[formula] [formula] • A: the corrected mortality rate is 100% • B: the corrected mortality rate is 90 to 99% • C: the corrected mortality rate is 80 to 89% • D: the corrected mortality rate is 50 to 79%

Laodelphax striatellus = assay: Insecticidal test on Laodelphax striatellus (Example 16); assay type: in vivo; settings: 192 h, rice seedling dip, 3rd-instar nymphs, 8 days after inoculation, read-out: activity level (corrected mortality rate)
Description: The compounds of formula (I), (Ia) and/or (Ib) of the present invention or salts thereof are separately dispersed in water and diluted to 500 ppm and 50 ppm. Rice plant seedlings are dipped in the dispersion for about 30 seconds. After air dried, the seedlings are put into a separate glass test tube and inoculated with ten 3rd-instar nymphs of Laodelphax striatellus and then the glass test tube is kept in a room at 25° C. 8 days after the inoculation, the numbers of the dead and alive insects are counted. The corrected mortality rate is calculated according to the following formula and the insecticidal activity is evaluated according to the following criteria.

adult C. felis fleas [1] = assay: Ingestion activity against adult Ctenocephalides felis, membrane feeding, motility (Example 6); settings: 48 h, bovine blood via artificial membrane, 48h post treatment, read-out: EC50 (ingestion activity, % motility reduction)
Description: Compounds of formulae (I), (Ia) and/or (Ib) dissolved in 100% DMSO are added to bovine blood and offered via an artificial membrane feeding system to adult C. felis fleas. The motility of fleas is then visually inspected 48h post treatment. Efficacy is expressed in % motility reduction compared to controls containing blood treated with DMSO only. A dose response series is implemented to determine EC50 values.

adult C. felis fleas [2] = assay: Ingestion activity against adult Ctenocephalides felis, membrane feeding, alternative method (Examples 7 and 13)
Description: Selected compounds of formula (I), (Ia) and (Ib) and compound “125” of WO 2021/033141 dissolved in 100% DMSO are diluted in bovine blood with sodium heparin anti-coagulant. The resulting formulation is offered via an artificial membrane feeding system to approximately 15 adult C. felis fleas previously dispensed into 24-well plates. The plates are then incubated in a double-chambered device. Visual evaluation for mortality is performed at 48 hours post-treatment. Compound efficacy at a given dose is expressed as percentage mortality and determined by normalization to positive and negative controls. A dose response series is implemented to determine EC50 values.
Compounds of formulae (I), (Ia) and/or (Ib) dissolved in 100% DMSO are diluted in bovine blood with sodium heparin anti-coagulant. The resulting formulation is offered via an artificial membrane feeding system to approximately 15 adult C. felis fleas previously dispensed into 24-well plates. The plates are then incubated in a double-chambered device. Visual evaluation for mortality is performed at 48 hours post-treatment. Compound efficacy at a given dose is expressed as percentage mortality and determined by normalization to positive and negative controls. A dose response series is implemented to determine EC50 values.

Plutella xylostella = assay: Insecticidal test on Plutella xylostella (Example 15); assay type: in vivo; settings: 144 h, Chinese cabbage seedling dip, 6 days after dip treatment, read-out: activity level (corrected mortality rate)
Description: The compounds of formula (I), (Ia) and/or (Ib) of the present invention or salts thereof are separately dispersed in water and diluted to 500 ppm and 50 ppm. Ten adults of Plutella xylostella are released onto Chinese cabbage seedlings and allowed to lay eggs thereon. 2 days after the release of the adults, the seedling is dipped in the dispersion for about 30 seconds. After air dried, the seedling is kept in a room at 25° C. 6 days after the dip treatment, the numbers of the dead and alive insects are counted. The corrected mortality rate is calculated according to the following formula and the insecticidal activity is evaluated according to the following criteria.

[3] = tested on: adult Ctenocephalides felis fleas; assay: Contact activity against adult Ctenocephalides felis (Example 4); settings: adult C. felis, coated pipe cleaner in vial, 72 hours post-treatment, read-out: EC50 (contact activity, percentage mortality)
Description: Compounds of formulae (I), (Ia) and/or (Ib) dissolved in 100% DMSO are diluted in acetone to a desired concentration. The resulting formulation is used to coat the fibers of a 0.5-inch-long piece of pipe cleaner placed in a glass scintillation vial. The vial is capped with a rubber gasket and filter paper insert. After the acetone has evaporated, ten adult Ctenocephalides felis fleas are added to each vial. The vials are then incubated at 22° C., 80% relative humidity, and 12 hours of light/12 hours of dark until a visual evaluation for mortality is performed at 72 hours post-treatment. Compound efficacy at a given dose is expressed as percentage mortality and adjusted to remove background mortality observed in control vials containing DMSO only. A dose response series of treated vials is implemented to determine EC50 values.

[4] = Ctenocephalides felis, adult C. felis, bovine blood with sodium heparin, membrane feeding, 48 hours post-treatment, read-out: EC50 (ingestion activity, percentage mortality, alternative method)
[5] = Ctenocephalides felis, alternative method according to Example 7, mortality at 48 hours post-treatment, read-out: C. felis membrane feeding (ingestion/blood feeding) activity EC50
[6] = alternative method according to Example 7, mortality at 48 hours post-treatment, read-out: C. felis membrane feeding (ingestion/blood feeding) activity EC50

EC50 (adult C. felis fleas [1]) [nM]	SMILES	pest or weed control at 500 ppm (Myzus persicae) [%]	mortality at 500 ppm (Laodelphax striatellus) [%]	EC50 (adult C. felis fleas [2]; [4]) [nM]	mortality at 500 ppm (Plutella xylostella) [%]	EC50 (adult C. felis fleas [2]; [5]) [nM]	also measured
1000 to 10000	CCS(=N)(=O)c1cc(-c2ccc(C3(C#N)CC3)cc2)cnc1-c1nc2cc(C(C)(F)F)cnc2n1C (centres unmarked) [Compound 2]	100	100	1000 to 10000	100	–	mortality at 500 ppm (Spodoptera litura): 100%
< 1000	CCS(=N)(=O)c1cc(-c2noc(C3(C(F)(F)F)CC3)n2)cnc1-c1nc2cc(C(F)(F)C3CC3)nnc2n1C (centres unmarked) [Compound 4]	–	–	< 1000	–	474	EC50 [3]: 10000 to 100000 nM
–	CC[S@](=N)(=O)c1cc(-c2noc(C3CC3)n2)cnc1-c1nc2cc(C(F)(F)C(F)(F)F)cnc2n1C [Compound 7a, (S)-[5-(5-cyclopropyl-1,2,4-oxadiazol-3-yl)-2-[3-methyl-6-(1,1,2,2,2-pentafluoroethyl)-3H-imidazo[4,5-b]pyridin-2-yl]pyridin-3-yl](ethyl)imino-lambda6-sulfanone]	–	–	–	–	–	EC50 (adult C. felis fleas [2]; [6]): 385 nM
–	CC[S@@](=N)(=O)c1cc(-c2noc(C3CC3)n2)cnc1-c1nc2cc(C(F)(F)C(F)(F)F)cnc2n1C [Compound 7b, (R)-[5-(5-cyclopropyl-1,2,4-oxadiazol-3-yl)-2-[3-methyl-6-(1,1,2,2,2-pentafluoroethyl)-3H-imidazo[4,5-b]pyridin-2-yl]pyridin-3-yl](ethyl)imino-lambda6-sulfanone]	–	–	–	–	–	EC50 (adult C. felis fleas [2]; [6]): 1350 nM
–	CC[SH](=N)(O)c1cc(-c2noc(C3CC3)n2)cnc1-c1nc2cc(C(F)(F)C(F)(F)F)nnc2n1C [Compound 8a]	–	–	–	–	–	EC50 (adult C. felis fleas [2]; [6]): 482 nM
–	CCS(=N)(=O)c1cc(-c2noc(C3CC3)n2)cnc1-c1nc2cc(C(C)(F)F)cnc2n1C (centres unmarked) [Compound 10]	100	100	–	100	–	–
–	CCS(=N)(=O)c1cc(-c2noc(C3CC3)n2)cnc1-c1nc2cc(C(F)(F)C3CC3)cnc2n1C (centres unmarked) [Compound 12]	100	–	–	–	–	mortality at 50 ppm (Plutella xylostella): 100%
< 1000	CCS(=N)(=O)c1cc(-c2noc(C3CC3)n2)cnc1-c1nc2cc(C(C)(F)F)nnc2n1C (centres unmarked) [Compound 13]	–	–	1000 to 10000	–	–	pest or weed control at 50 ppm (Myzus persicae): 100%; mortality at 50 ppm (Laodelphax striatellus): 100%; mortality at 50 ppm (Plutella xylostella): 100%
–	CCS(=N)(=O)c1cc(-c2noc(C3CC3)n2)cnc1-c1nc2cc(C(F)(F)C3CC3)nnc2n1C (centres unmarked) [Compound 15]	100	100	1000 to 10000	100	–	–
–	CCS(=N)(=O)c1cc(-c2ccc(C3(C#N)CC3)cc2)cnc1-c1nc2cc(C(C)(F)F)cn(CC(F)F)c-2c1F (centres unmarked) [Compound 16]	–	–	1000 to 10000	–	–	–
–	CCS(=N)(=O)c1cc(-c2ccc(C3(C#N)CC3)cc2)cnc1-c1nc2cc(C(F)(F)F)cn(CC(F)F)c-2c1F (centres unmarked) [Compound 17]	–	–	< 1000	–	330	–
–	CCS(=N)(=O)c1cc(-c2noc(C3(F)CC3)n2)cnc1-c1nc2cc(C(C)(F)F)cnc2n1C (centres unmarked) [Compound 18]	–	–	–	–	–	pest or weed control at 50 ppm (Myzus persicae): 100%; mortality at 50 ppm (Laodelphax striatellus): 100%; mortality at 50 ppm (Plutella xylostella): 100%
< 1000	CCS(=N)(=O)c1cc(-c2cn(C3CC3)cn2)cnc1-c1nc2cc(C(F)(F)C(F)(F)F)cnc2n1C (centres unmarked) [Compound 21]	100	100	< 1000	100	403	EC50 [3]: 10000 to 100000 nM; mortality at 500 ppm (Spodoptera litura): 100%
< 1000	CCS(=N)(=O)c1cc(-n2cc(C3(C#N)CC3)cn2)cnc1-c1nc2cc(C(F)(F)C(F)(F)F)cnc2n1C (centres unmarked) [Compound 26]	100	100	< 1000	100	875	mortality at 500 ppm (Spodoptera litura): 100%
1000 to 10000	CCS(=N)(=O)c1cc(-n2cc(C3CC3)nn2)cnc1-c1nc2cc(C(F)(F)C(F)(F)F)cnc2n1C (centres unmarked) [Compound 28]	100	100	1000 to 10000	100	–	mortality at 500 ppm (Spodoptera litura): 100%
–	CCS(=N)(=O)c1cc(-c2noc(C3(F)CC3)n2)cnc1-c1nc2cc(C(C)(F)F)nnc2n1C (centres unmarked) [Compound 29]	100	100	1000 to 10000	100	–	EC50 [3]: 10000 to 100000 nM
< 1000	CCS(=N)(=O)c1cc(-c2noc(C3(F)CC3)n2)cnc1-c1nc2cc(C(F)(F)C(F)(F)F)nnc2n1C (centres unmarked) [Compound 32]	–	–	< 1000	–	417	EC50 [3]: < 10000 nM; pest or weed control at 50 ppm (Myzus persicae): 100%; mortality at 50 ppm (Laodelphax striatellus): 100%; mortality at 50 ppm (Plutella xylostella): 100%
1000 to 10000	CCS(=N)(=O)c1cc(-n2cc(C3(C#N)CC3)cn2)cnc1-c1nc2cc(C(F)(F)C(F)(F)F)nnc2n1C (centres unmarked) [Compound 33]	–	–	< 1000	–	437	pest or weed control at 50 ppm (Myzus persicae): 100%; mortality at 50 ppm (Laodelphax striatellus): 100%; mortality at 50 ppm (Plutella xylostella): 100%
–	CCS(=N)(=O)c1cc(-n2cc(C3CC3)cn2)cnc1-c1nc2cc(C(F)(F)C(F)(F)F)nnc2n1C (centres unmarked) [Compound 34]	100	100	–	100	–	EC50 [3]: 10000 to 100000 nM; mortality at 500 ppm (Spodoptera litura): 100%
1000 to 10000	CCS(=N)(=O)c1cc(-c2ccc(C3(C#N)CC3)cc2)cnc1-n1cc2cnc(C(F)(F)F)cc2n1 (centres unmarked) [Compound 35]	–	–	< 1000	–	771	–
